Data published in patent publication US20210017492A1, “USE OF RETINOIC ACID IN T-CELL MANUFACTURING” (Immatics US, Inc., priority 2019, published 2021).
Entries after “also recorded” stand apart in the source; their conditions may differ. Like-named read-outs stand apart in the source and are kept apart here.

Assays:
T cells [1] = experiment: Flow cytometry staining of Day 6 cells for expression of the transduced TCR (PRAME dextramer); format: cell-based, human
Description: Flow cytometry staining was performed on Day 6 cells to assess the expression of TCR.

T cells [2] = tested on: T cells
Description: On Day 3, cells were fed with media containing IL-7 and IL-15. On Day 6, cells were harvested and about half of cells were cryopreserved. The other half of cells were transferred to G-Rex 6-well plate, to which 10 ml of fresh medium was added without RA (Group 1) or with RA (100 nM/ml) (Group 2). Some Day 6 cells were analysed by flow cytometry to assess transduction efficiency. On Day 8, remaining cells were harvested and cryopreserved.

[3] = Day 6 or Day 8 cells untreated or treated with RA, data not shown
[4] = Day 6 or Day 8 cells, Wilcoxon test
[5] = Day 6 or Day 8 cells, data not shown
[6] = RA-treated Day 6 T cell products
[7] = RA-treated Day 8 T cell products

CC1=C(/C=C/C(C)=C/C=C/C(C)=C/C(=O)O)C(C)(C)CCC1 [RA, all-trans-retinoic acid]
% CD3+ of live lymphocytes, with vs without RA (T cells [1]; Donor 1): comparable
% CD8+ of live CD3+ cell, with vs without RA (T cells [1]; Donor 1): comparable
% of CD8+ cells expressing the transduced TCR (T cells [1]; Donor 1, with RA treatment (ATRA 100 nM/ml)): 32.9%
% CD3+ of live lymphocytes, with vs without RA (T cells [1]; Donor 2): comparable
% CD8+ of live CD3+ cell, with vs without RA (T cells [1]; Donor 2): comparable
% of CD8+ cells expressing the transduced TCR (T cells [1]; Donor 2, with RA treatment (ATRA 100 nM/ml)): 13.3%
CD38 expression on RA-treated CD8+ T cells (T cells [2]): expressed on all RA-treated CD8+ T cells
RA-treated CD103+ cells that also express CCR9 (T cells [2]): almost all
effect of RA treatment on CD45RA+ CD3+CD8+ T cells (T cells [2]; 1-way ANOVA on 3 data sets): significantly decreases
effect of RA treatment on transitional CD3+CD8+ T cells (T cells [2]; 1-way ANOVA on 3 data sets): significantly decreases
effect of RA treatment on CD45RO+ T cells (T cells [2]; 1-way ANOVA on 3 data sets, CD3+CD8+ T cells): significantly increases
CD25+ cells, with vs without RA treatment (T cells [2]; Day 6 or Day 8 T cell products, Paired t-test): does not impact; also recorded: no significant difference
CD73, untreated or treated with RA (T cells [2]; Day 6 or Day 8 cells): no difference was observed between Day 6 or Day 8 cells
CD95, untreated or treated with RA (T cells [2]; Day 6 or Day 8 cells): no difference was observed between Day 6 or Day 8 cells
CD73 positive cells (T cells [2]; [3]): untreated or treated with RA (<5% positive, data not shown)
CD95 positive cells (T cells [2]; [3]): untreated or treated with RA (>90% positive, data not shown)
CD27+ cells, treated vs untreated (T cells [2]; [4]): no significant difference; also recorded: No difference was seen between treated and untreated and
CD28+ cells, treated vs untreated (T cells [2]; [4]): no significant difference; also recorded: No difference was seen between treated and untreated and
CD39+ cells, untreated or treated with RA (T cells [2]; [4]): no significant difference; also recorded: no difference was observed between Day 6 or Day 8 cells
CXCR4+ cells, untreated or treated with RA (T cells [2]; [4]): no significant difference; also recorded: no difference was observed between Day 6 or Day 8 cells
HLA-DR+ cells, untreated or treated with RA (T cells [2]; [4]): no significant difference; also recorded: no difference was observed between Day 6 or Day 8 cells
CD56 (NK-related marker), treated vs untreated (T cells [2]; [5]): No difference was seen between treated and untreated and
CD94 (NK-related marker), treated vs untreated (T cells [2]; [5]): No difference was seen between treated and untreated and
CD314 (NK-related marker), treated vs untreated (T cells [2]; [5]): No difference was seen between treated and untreated and
effect of RA treatment on Tcm (T cells [2]; FIG. 10): increases
effect of RA treatment on Tem (T cells [2]; FIG. 10): little effect
effect of RA treatment on Temra (T cells [2]; FIG. 10): little effect
effect of RA treatment on naïve/Tscm (T cells [2]; FIG. 10): significantly decreases
CD103 expression, with vs without RA treatment (T cells [2]; FIG. 19B): does not significantly affect
CD45RO+ T cells (T cells [2]; [6]): 80.3%
CD62L+ T cells (T cells [2]; [6]): 7.74%
naïve/Tscm (CD45RA+CD197+) (T cells [2]; [6]): 6.07%
CD45RO+ T cells (T cells [2]; [7]): 84.5%
CD62L+ T cells vs without RA treatment (T cells [2]; [7]): significantly fewer
naïve/Tscm (CD45RA+CD197+) (T cells [2]; [7]): 4.25%
CCR9+ cells, with vs without RA treatment (T cells [2]; Wilcoxon test, p=0.0313): significantly increases
CD25+ cells, Day 8 RA-treated vs Day 6 T cell products without RA treatment (T cells [2]; Wilcoxon test, p=0.0313): significantly fewer
CD38+ cells, with vs without RA treatment (T cells [2]; Wilcoxon test, p=0.0313): significantly increases
CD38 MFI (Mean Fluorescence Intensity) in CD8+ T cells vs without RA treatment (T cells [2]; Wilcoxon test, p=0.0313): higher
CD49a+ cells, with vs without RA treatment (T cells [2]; Wilcoxon test, p=0.0313): significantly increases
CD69+ cells, with vs without RA treatment (T cells [2]; Wilcoxon test, p=0.0313): significantly increases
ICOS+ cells, with vs without RA treatment (T cells [2]; Wilcoxon test, p=0.0313): lower levels; also recorded: significantly decreases
α4β7+ cells, with vs without RA treatment (T cells [2]; Wilcoxon test, p=0.0313, α4+ and β7+ detected separately): significantly increases
CD197+ cells (T cells [2]; between Day 6 and Day 8 T cell products with or without RA treatment): no significant difference
CCR6, effect of RA treatment (T cells [2]; data not shown): to low frequency and no differences (data not shown)
expression of CCR9 on DEX+CD3+CD8+α4β7+ cells vs without RA treatment (T cells [2]; p=0.0313): significantly higher
α4β7 expression in CD3+CD8+DEX+ cells vs without RA treatment (T cells [2]; p=0.0313): significantly higher
α4β7+ cells present in CD3+CD8+DEX+ cells (T cells [2]; with RA treatment, CD49d (α4) and β7): 54.6%
